Experimental data published in US20200129450A1, “COMPOSITION COMPRISING OSMUNDACETONE OR PHARMACEUTICALLY ACCEPTABLE SALT THEREOF FOR PREVENTING OR TREATING BONE DISEASE” (KORPHARM CO., LTD., priority 2016, published 2020).

Tests used:
B16F10 mouse melanoma = experiment: MTT assay cytotoxicity; type: cell-based; details: B16F10, 24 hours
Protocol: (§1) HaCaT human epidermal keratinocytes, # ATCC PCS-200-011) were incubated using Dulbecco's modified Eagle's medium (DMEM, # DMEM-HPA, Capricorn Scientific, Ebsdorfergrund, Germany) in the conditions of 37° C. and 5% CO2. NIH3T3 mouse embryo fibroblasts (# KCLB 21658), RAW264.7 murine macrophages (preosteoclast cell line, # KCLB 40071), HCT116 human colon cancer cells (# KCLB 10247), PC3 human prostate adenocarcinoma cells (# KCLB 21435), HT1080 human fibrosarcoma cells (# KCLB 1121), and B16F10 mouse malignant melanoma cells (# KCLB 80008) were purchased from the Korean Cell Line Bank, and incubated using DMEM in the conditions of 37° C. and 5% C02.
(§2) The compound isolated from Osmunda japonica, prepared in section 1 of <Example 1>, was investigated for cytotoxicity using MTT assay.
(§3) MTT assay was as follows.
(§4) Cells were incubated at 1×10^3 cells/well in a 96-well plate containing DMEM with 10% fetal bovine serum (FBS) at 5% CO2 and 37° C., and then osmundacetone was added to the cell medium, followed by incubation for 24 hours. Thereafter, 100 μL of MTT (0.5 mg/ml PBS) was administered, followed by incubation for 2 hours. […] After incubation for 10 minutes, the absorbance was measured using a microplate reader (SPCTRA MAX 340PC, Molecular Devices, USA) at 570 nm. The absorbance is an indicator showing the number of living cells, and calculated by the following equation. […]

[1] = system: NIH3T3 mouse embryo fibroblasts; experiment: MTT assay cytotoxicity; type: cell-based; details: NIH3T3, 24 hours, read-out: IC50 according to MTT assay
Protocol: as §1, §2, §3, §4

[2] = MTT assay cytotoxicity, cancer cell lines (summary); type: cell-based; details: human cancer cell lines (AGS, PC3) compared with human normal cell lines (HaCaT, ADMSC); read-out: cancer selectivity index in cell cytotoxicity
Protocol: as §3
(§5) Cells were incubated at 1×10^3 cells/well in a 96-well plate containing DMEM with 10% fetal bovine serum (FBS) at 5% CO2 and 37° C., and then osmundacetone was added to the cell medium, followed by incubation for 24 hours. Thereafter, 100 μL of MTT (0.5 mg/ml PBS) was administered, followed by incubation for 2 hours. Thereafter, the medium was removed from each well, and 100 μL of DMSO was added. After incubation for 10 minutes, the absorbance was measured using a microplate reader (SPCTRA MAX 340PC, Molecular Devices, USA) at 570 nm. The absorbance is an indicator showing the number of living cells, and calculated by the following equation.
(§6) Cell proliferation (%)=OD550(sample)/OD550(control)

cancer cell lines = experiment: as above; type: cell-based; details: summary range
Protocol: as §3, §5, §6

OCN in MC3T3-E1 cells = experiment: Western blot, OCN production by osteoblasts; type: cell-based, mouse; details: 50 μM
Protocol: In order to analyze the expression of osteoblast differentiation markers during a differentiation procedure, 3×10^5 MC3T3-E1 cells were dispensed in a 100 mm culture plate together with 10 mL of complete α-MEM containing ascorbic acid (50 μg/mL) and 10 mM R-glycerophosphate per well. Here, 50 μM osmundacetone was added or not added, and the cells were incubated at 37 […] in a 5% CO2 incubator for 21 days while the medium was exchanged every 3-4 days.
The negative control cells were cultured without differentiation factors, and the osteoblasts and a culture thereof were dispensed, and then collected on day 7, 14, or 21.
The cells were lysed using RIPA buffer, and then the expression of runt-related transcription factor 2 (RUNX2) was analyzed. Also for analysis of OCN secretion, the culture was collected, and normalized by cellular DNA.
Proteins were analyzed using SDS-PAGE on 12.5% […] gels, and transferred on polyvinylidene difluoride (PVDF) membrane through electrophoresis.
The membrane was blocked using non-fat milk, and examined using anti-RUNX2 (D1H7) rabbit monoclonal antibody (#8486, Cell Signaling Technology, MA, USA) or anti-OCN (FL-95) antibody (# sc-30045, Santa Cruz Biotechnology, TX, USA). Anti-actin antibody (# M177-3, MEDICAL & BIOLOGICAL LABORATORIES CO., LTD., Nagoya, Aichi, Japan) was used as an internal reference. […]

With `CC(=O)/C=C/c1ccc(O)c(O)c1` [Osmundacetone, (3E)-4-(3,4-dihydroxyphenyl)-3-buten-2-one] the “LD50 (MTT assay)” value (B16F10 mouse melanoma) was 75.8 ± 9.2 µM, the IC50 [1] was > 5 mM and the selectivity ratio at 24 h [2] was 45 to 60. The “LD50 for several cancer cell lines” value (cancer cell lines) was 50 to 70 µM, the “OCN production by osteoblasts, increase compared with non-treated positive control cells” value (OCN in MC3T3-E1 cells; day 14) was 2.9 times and the “OCN production by osteoblasts, increase compared with non-treated positive control cells” value (OCN in MC3T3-E1 cells; day 21) was 1.2 times.
